These are literature values, as cited in patent publication EP1988398B1, “Immunoassay for tramadol and its major metabolites” (Randox Laboratories Ltd., priority 2007, dated 2008).

Structures can show the parent of a compound that is named as a salt.

[1] abbreviates: oral administration of a single 100 mg dose.

As for `CNC[C@@H]1CCCC[C@@]1(O)c1cccc(OC)c1` (racemic) [N-demethyltramadol, (±)-cis-2-[(methylamino)methyl]-1-(3-methoxyphenyl)cyclohexanol], the “abundance of N-demethyltramadol relative to O-demethyltramadol” value (normal tramadol dosage levels) is 1.5-3 times.
For the compound `COc1cccc(C2(O)CCCCC2CN(C)C)c1` (racemic) [Tramadol, (±)-cis-2-[(dimethylamino)methyl]-1-(3-methoxyphenyl)cyclohexanol hydrochloride], under setting [1], the “plasma concentration of tramadol peaks” value is given as “approximately 600 ng/ml” and the “time of peak plasma concentration” value was 2 to 3 h. For the same compound, for the setting “oral, single 100 mg dose”, the “Urinary excretion of the dose as metabolites” value is recorded as 60% and the “Urinary excretion of the dose as the unchanged drug” value was 30%.
